In brackets after ≈: the same amount, converted by molar mass.
Legend:
Experiment in all cases: Antibacterial effectiveness in agar
Type in all cases: cell-based
[1] = system: Enterobacter cloacea NCTC 10005; details: NCTC10005; in agar; Enterobacter cloacea NCTC 10005; read-out: M.I.C.
Source text: (§1) b. Antibacterial effectiveness of the compound of […]

[2] = system: Escherichia coli JT4R+
Source text: as §1

[3] = system: Bacteroides fragilis WS41; details: in agar; Bacteroides fragilis WS41; read-out: M.I.C.
Source text: as §1

[4] = system: Enterbacter aerogenes T660; details: in agar; Enterbacter aerogenes T660; read-out: M.I.C.
Source text: as §1

[5] = system: Escherichia coli Ba78R+; details: in agar; Escherichia coli Ba78R+; read-out: M.I.C.
Source text: as §1

[6] = system: Serratia marcescens SM27; details: in agar; Serratia marcescens SM27; read-out: M.I.C.
Source text: as §1

[7] = system: Streptococcus faecalis C90; details: Enterococcus faecalis; in agar; Streptococcus faecalis C90; read-out: M.I.C.
Source text: as §1

[8] = system: Enterobacter cloacea T749; details: in agar; Enterobacter cloacea T749; read-out: M.I.C.
Source text: as §1

[9] = system: Proteus morganii I; details: Morganella morganii; in agar; Proteus morganii I; read-out: M.I.C.
Source text: as §1

[10] = system: Klebsiella aerogenes R112; details: in agar; Klebsiella aerogenes R112; read-out: M.I.C.
Source text: as §1

[11] = system: Staphylococcus aureus T150+; details: in agar; Staphylococcus aureus T150+; read-out: M.I.C.
Source text: as §1

[12] = system: Serratia marcescens Wo146; details: in agar; Serratia marcescens Wo146; read-out: M.I.C.
Source text: as §1

Compound `CC(=O)N/C=C/SC1=C(C(=O)O)N2C(=O)[C@@H]([C@H](C)OS(=O)(=O)O)[C@H]2C1` [MM 13902, reference compound] has an MIC [1] of 12.5 µg/mL (≈ 31.9 µM), an MIC [2] of 1.6 µg/mL (≈ 4.08 µM) and an MIC [3] of 0.4 µg/mL (≈ 1.02 µM). For the same compound, the MIC [4] was 0.4 µg/mL (≈ 1.02 µM), the MIC [5] was 0.8 µg/mL (≈ 2.04 µM) and the MIC [6] was 1.6 µg/mL (≈ 4.08 µM). The MIC [7] was 6.2 µg/mL (≈ 15.8 µM), the MIC [8] was 12.5 µg/mL (≈ 31.9 µM) and the MIC [9] was 0.2 µg/mL (≈ 0.51 µM). The MIC [10] was 0.2 µg/mL (≈ 0.51 µM), the MIC [11] was 1.6 µg/mL (≈ 4.08 µM) and the MIC [12] was 3.1 µg/mL (≈ 7.9 µM).
